Data taken from ChEMBL document CHEMBL3608283, “Pyrrolopyridine or Pyrazolopyridine Derivatives” (ACS Med Chem Lett, 2015).
Residue numbers refer to the chain shown, from its start.

Legend:
[1] = target: T1, Muscarinic acetylcholine receptor M1 (Homo sapiens, UniProt P11229); assay: Positive allosteric modulation of human muscarinic M1 receptor expressed in CHO cells assessed as basal and acetylcholine-stimulated Ca2+ level by FLIPR assay; assay type: functional, cell-based
T1 sequence (P11229 whole entry): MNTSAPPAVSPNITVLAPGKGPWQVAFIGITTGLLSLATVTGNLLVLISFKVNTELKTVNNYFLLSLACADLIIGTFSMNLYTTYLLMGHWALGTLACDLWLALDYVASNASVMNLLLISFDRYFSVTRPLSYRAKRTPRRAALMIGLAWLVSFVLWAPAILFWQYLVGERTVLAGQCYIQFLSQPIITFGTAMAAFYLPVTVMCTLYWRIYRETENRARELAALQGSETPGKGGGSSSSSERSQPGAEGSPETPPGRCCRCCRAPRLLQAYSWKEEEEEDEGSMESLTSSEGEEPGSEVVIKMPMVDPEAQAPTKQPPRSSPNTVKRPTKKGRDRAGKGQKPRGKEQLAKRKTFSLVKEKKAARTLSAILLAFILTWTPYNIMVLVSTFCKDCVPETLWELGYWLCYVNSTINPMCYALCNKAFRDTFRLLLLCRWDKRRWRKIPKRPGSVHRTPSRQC

[2] = target: T2, Muscarinic acetylcholine receptor M1 (Rattus norvegicus, UniProt P08482); assay: Positive allosteric modulation of rat muscarinic M1 receptor expressed in CHO cells assessed as basal and acetylcholine-stimulated Ca2+ level by FLIPR assay; assay type: functional, cell-based
T2 sequence (P08482 whole entry): T1 sequence (P11229 whole entry) with A5V, T254S, P309S, R320K, A337G, I413V

SMILES | EC50 [1] [nM] | EC50 [2] [nM]
CNC(=O)c1ccc(Cn2cc(C(=O)N[C@H]3COCC[C@@H]3O)c3ncccc32)cc1 | 9.1 | 18
Cn1cc(-c2ccc(Cn3cc(C(=O)N[C@H]4CCOC[C@@]4(C)O)c4ncccc43)c(F)c2)cn1 | 47.9 | 63.2
Cn1ncc2cc(Cn3cc(C(=O)N[C@H]4COCC[C@@H]4O)c4ncccc43)ccc21 | 71.5 | 162
Cn1cc(-c2ccc(Cn3cc(C(=O)N[C@H]4COCC[C@@H]4O)c4ncccc43)cn2)cn1 | 34.8 | 71.1
Cn1cc(-c2ccc(Cn3cc(C(=O)N[C@H]4COCC[C@@H]4O)c4ncccc43)cc2)cn1 | 11.1 | 13.8
Cn1cc(-c2ccc(Cn3cc(C(=O)N[C@H]4CCOC[C@@H]4O)c4ncccc43)c(F)c2)cn1 | 28.5 | 58.6
Cn1cc(-c2ccc(Cn3cc(C(=O)N[C@H]4COCC[C@@H]4O)c4ncccc43)cc2F)cn1 | 15.5 | 18
